The values that follow come from patent US8071612B2, “6-alkenyl and 6-phenylalkyl substituted 2-quinolinones and 2-quinoxalinones as poly(ADP-ribose) polymerase inhibitors” (Janssen Pharmaceutica, NV, priority 2004, dated 2011).

The target of assay [1] is T1, PARP-1 enzyme (Homo sapiens, UniProt P09874).
T1 construct: made in house
Description: In vitro filtration assay for PARP-1 inhibitory activity. Particulars: nicked DNA activated PARP-1, [32P]-NAD, histones; read-out: In vitro filtration assay pIC50 (converted). Format: biochemical. Here is the method:
Compounds of the present invention were tested in an in vitro filtration assay assessing PARP-1 activity (triggered in the presence of nicked DNA) by means of its histone poly (ADP-ribosyl)ation activity using [^32P]-NAD as ADP-ribosyl donor. The radioactive ribosylated histones were precipitated by trichloroacetic acid (TCA) in 96-well filterplates and the incorporated [^32P] measured using a scintillation counter
A mixture of histones (stock solution: 5 mg/ml in H2O), NAD (stock solution: 100 mM in H2O), and [^32P]-NAD^+ in incubation buffer (50 mM Tris/HCl, pH 8; 0.2 mM DTT; 4 mM MgCl2) was made. A mixture of the PARP-1 enzyme (5-10 μg/ml) and nicked DNA was also made. The nicked DNA was prepared as described in the in vitro SPA for PARP-1 inhibitory activity. Seventy-five μl of the PARP-1 enzyme/DNA mixture together with 1 μl of compound in DMSO and 25 μl of histones-NAD^+/[^32P]-NAD^+ mixture was added per well of a 96-well filterplate (0.45 μm, supplier Millipore). The final concentrations in the incubation mixture were 2 μg/ml for the histones, 0.1 mM for the NAD^+, […] (0.5 μC) for the [^32P]-NAD^+ and 2 μg/ml for the nicked DNA. Plates were incubated for 15 min. at room temperature and the reaction was terminated by the addition of 10 μl ice cold 100% TCA followed by the addition of 10 μl ice-cold BSA solution (1% in H2O). The protein fraction was allowed to precipitate for 10 min. at 4° C. and plates were vacuum filtered. The plates were subsequently washed with, for each well, 1 ml of 10% ice cold TCA, 1 ml of 5% ice cold TCA and 1 ml of 5% TCA at room temperature. Finally 100 μl of scintillation solution (Microscint 40, Packard) was added to each well and the plates were transferred to a TopCountNXT™ (supplier: Packard) for scintillation counting and values were expressed as counts per minute (cpm). For each experiment, controls (containing PARP-1 enzyme and DMSO without compound), a blank incubation (containing DMSO but no PARP-1 enzyme or compound) and samples (containing PARP-1 enzyme and compound dissolved in DMSO) were run in parallel. All compounds tested were dissolved and eventually further diluted in DMSO. In first instance, compounds were tested at a concentration of 10^−5M. […] In each test, the blank value was subtracted from both the control and the sample values. The control sample represented maximal PARP-1 enzyme activity. For each sample, the amount of cpm was expressed as a percentage of the mean cpm value of the controls. When appropriate, IC50-values (concentration of the drug, needed to reduce the PARP-1 enzyme activity to 50% of the control) were computed using linear interpolation between the experimental points just above and below the 50% level. Herein the effects of test compounds are expressed as pIC50 (the negative log value of the IC50-value). As a reference compound, 4-amino-1,8-naphthalimide was included to validate the filtration assay.

The target in assay [2] is T1, PARP-1 enzyme. The assay is described as follows: In vitro Scintillation Proximity Assay (SPA) for PARP-1 inhibitory activity. Particulars: nicked DNA activated PARP-1, [3H]-NAD+, biotinylated histones; read-out: In vitro SPA pIC50 (converted). Format: biochemical. The protocol: Compounds of the present invention were tested in an in vitro assay based on SPA technology (proprietary to Amersham Pharmacia Biotech).
In principle, the assay relies upon the well established SPA technology for the detection of poly(ADP-ribosyl)ation of biotinylated target proteins, i.e histones. This ribosylation is induced using nicked DNA activated PARP-1 enzyme and [^3H]-nicotinamide adenine dinucleotide ([^3H]-NAD^+) as ADP-ribosyl donor.
As inducer of PARP-1 enzyme activity, nicked DNA was prepared. For this, 25 mg of DNA (supplier: Sigma) was dissolved in 25 ml DNAse buffer (10 mM Tris-HCl, pH 7.4; 0.5 mg/ml Bovine Serum Albumine (BSA); 5 mM MgCl2.6H2O and 1 mM KCl) to which 50 μl DNAse solution (1 mg/ml in 0.15 M NaCl) was added. After an incubation of 90 min. at 37° C., the reaction was terminated by adding 1.45 g NaCl, followed by a further incubation at 58° C. for 15 min. The reaction mixture was cooled on ice and dialysed at 4° C. for respectively 1.5 and 2 hours against 1.5 l of 0.2 M KCl, and twice against 1.5 l of 0.01 M KCl for 1.5 and 2 h respectively. The mixture was aliquoted and stored at −20° C. Histones (1 mg/ml, type II-A, supplier: Sigma) were biotinylated using the biotinylation kit of Amersham and stored aliquoted at −20° C. A stock solution of 100 mg/ml SPA poly(vinyl toluene) (PVT) beads (supplier: Amersham) was made in PBS. A stock solution of [^3]H-NAD^+ was made by adding 120 μl of [^3H]-NAD^+ (0.1 mCi/ml, supplier: NEN) to 6 ml incubation buffer (50 mM Tris/HCl, pH 8; 0.2 mM DTT; 4 mM MgCl2). A solution of 4 mM NAD^+ (supplier: Roche) was made in incubation buffer (from a 100 mM stock solution in water stored at −20° C.). The PARP-1 enzyme was produced using art known techniques, i.e. cloning and expression of the protein starting from human liver cDNA. Information concerning the used protein sequence of the PARP-1 enzyme including literature references can be found in the Swiss-Prot database under primary accession number P09874. Biotinylated histones and PVT-SPA beads were mixed and pre-incubated for 30 min. at room temperature. PARP-1 enzyme (concentration was lot dependent) was mixed with the nicked DNA and the mixture was pre-incubated for 30 min. at 4° C. Equal parts of this histones/PVT-SPA beads solution and PARP-1 enzyme/DNA solution were mixed and 75 μl of this mixture together with 1 μl of compound in DMSO and 25 μl of [^3H]-NAD^+ was added per well into a 96-well microtiterplate. The final concentrations in the incubation mixture were 2 μg/ml for the biotinylated histones, 2 mg/ml for the PVT-SPA beads, 2 μg/ml for the nicked DNA and between 5-10 μg/ml for the PARP-1 enzyme. After incubation of the mixture for 15 min. at room temperature, the reaction was terminated by adding 100 μl of 4 mM NAD^+ in incubation buffer (final concentration 2 mM) and plates were mixed.
The beads were allowed to sediment for at least 15 min. and plates transferred to a TopCountNXT™ (Packard) for scintillation counting, values were expressed as counts per minute (cpm). For each experiment, controls (containing PARP-1 enzyme and DMSO without compound), a blank incubation (containing DMSO but no PARP-1 enzyme or compound) and samples (containing PARP-1 enzyme and compound dissolved in DMSO) were run in parallel. All compounds tested were dissolved and eventually further diluted in DMSO. In first instance, compounds were tested at a concentration of 10^−5 M or 10^−6M. […] In each test, the blank value was subtracted from both the control and the sample values. The control sample represented maximal PARP-1 enzyme activity. For each sample, the amount of cpm was expressed as a percentage of the mean cpm value of the controls. When appropriate, IC50-values (concentration of the drug, needed to reduce the PARP-1 enzyme activity to 50% of the control) were computed using linear interpolation between the experimental points just above and below the 50% level. […]
(SPA uses beads or plates that emit light when radiolabelled molecules are held near them.)

T1 sequence (P09874 whole entry): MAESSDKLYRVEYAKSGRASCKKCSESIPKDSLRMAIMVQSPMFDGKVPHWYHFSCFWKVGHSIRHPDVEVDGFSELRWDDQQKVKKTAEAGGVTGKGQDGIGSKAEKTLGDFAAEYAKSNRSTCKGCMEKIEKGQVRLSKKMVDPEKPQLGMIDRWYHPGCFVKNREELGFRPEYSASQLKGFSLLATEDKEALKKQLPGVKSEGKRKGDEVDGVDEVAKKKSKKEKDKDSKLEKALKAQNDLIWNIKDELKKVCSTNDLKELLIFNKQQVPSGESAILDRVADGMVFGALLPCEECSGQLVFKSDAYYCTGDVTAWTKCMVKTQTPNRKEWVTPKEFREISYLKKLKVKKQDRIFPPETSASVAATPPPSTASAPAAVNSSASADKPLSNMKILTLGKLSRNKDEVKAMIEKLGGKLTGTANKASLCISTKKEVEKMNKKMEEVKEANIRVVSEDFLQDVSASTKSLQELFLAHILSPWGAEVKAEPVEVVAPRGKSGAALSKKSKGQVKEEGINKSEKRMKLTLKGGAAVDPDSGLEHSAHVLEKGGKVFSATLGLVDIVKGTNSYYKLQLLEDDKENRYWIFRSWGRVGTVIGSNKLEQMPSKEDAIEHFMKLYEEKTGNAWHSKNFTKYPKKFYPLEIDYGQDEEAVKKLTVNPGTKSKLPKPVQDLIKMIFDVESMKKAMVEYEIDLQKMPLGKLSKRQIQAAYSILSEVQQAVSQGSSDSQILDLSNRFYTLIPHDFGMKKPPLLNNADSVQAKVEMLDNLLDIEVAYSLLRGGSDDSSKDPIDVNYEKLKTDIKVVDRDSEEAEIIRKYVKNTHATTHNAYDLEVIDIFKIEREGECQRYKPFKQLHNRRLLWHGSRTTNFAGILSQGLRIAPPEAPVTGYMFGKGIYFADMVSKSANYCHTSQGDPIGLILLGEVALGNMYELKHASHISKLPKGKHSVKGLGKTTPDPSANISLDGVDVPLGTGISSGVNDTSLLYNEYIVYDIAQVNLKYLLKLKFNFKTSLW

On to `CCc1cc2cc(C(c3ccc(Cl)cc3)N3CCC(NCCOC)CC3)ccc2[nH]c1=O` (stereo not shown) [Compound 86], for which the IC50 in assay [1] is 2240 nM; in assay [2], 292 nM.

Regarding `CCc1cc2cc(C(c3cccc(C(F)(F)F)c3)N3CCC(NCCOC)CC3)ccc2[nH]c1=O` (stereo not shown) [Compound 87], the IC50 in assay [1] is 4950 nM; in assay [2] it was 589 nM.

For `Cc1cc2cc(C(c3ccccc3)C3CCCN(C)C3)ccc2[nH]c1=O` (stereo not shown) [Compound 88], the IC50 is 4070 nM in assay [1] and 264 nM in assay [2].

On to `Cc1cc2cc(C(CCN3CCCCC3)c3ccccc3)ccc2[nH]c1=O` (stereo not shown) [Compound 89], for which the IC50 in assay [1] is 2680 nM; in assay [2], 451 nM.

With `CCc1cc2cc(C(CCN(C)C)c3cccc(C(F)(F)F)c3)ccc2[nH]c1=O` (stereo not shown) [Compound 91], the IC50 in assay [1] was 828 nM; in assay [2], 187 nM.

Take `CCc1cc2cc(C(CCN(C)C)c3ccccc3)ccc2[nH]c1=O` (stereo not shown) [Compound 92]: the values for the IC50 in assay [1] and in assay [2] were 1180 nM and 105 nM, respectively.

In the case of `Cc1cc2cc(C(c3ccccc3)N3CCCCC3)ccc2[nH]c1=O` (stereo not shown) [Compound 93], the IC50 is 2150 nM in assay [1] and 508 nM in assay [2].

As to `Cc1cc2cc(C(c3cccc(Cl)c3)n3ccnc3)ccc2[nH]c1=O` (stereo not shown) [Compound 94], the results for the IC50 in assay [1] and in assay [2] were 3560 nM and 665 nM, respectively.

On to `Cc1cc2cc(C(c3ccc(Cl)cc3)n3ccnc3)ccc2[nH]c1=O` (stereo not shown) [Compound 95], for which the IC50 in assay [1] was 6350 nM; in assay [2] it was 818 nM.

With `CCc1cc2cc(C(NC=O)c3ccccc3)ccc2[nH]c1=O` (stereo not shown) [Compound 96], the results for the IC50 in assay [1] and in assay [2] were 352 nM and 69.8 nM, respectively.

With `Cc1cccc(C(NC=O)c2ccc3[nH]c(=O)c(C)cc3c2)c1` (stereo not shown) [Compound 98], the IC50 in assay [1] is 3830 nM; in assay [2] it was 274 nM.

In the case of `Cc1cc2cc(C(NC=O)c3ccc4c(c3)OCO4)ccc2[nH]c1=O` (stereo not shown) [Compound 99], the IC50 in assay [1] is 1470 nM; in assay [2], 289 nM.

As to `CCOC(=O)c1ccc(C(NC=O)c2ccc3[nH]c(=O)c(C)cc3c2)cc1` (stereo not shown) [Compound 100], the IC50 in assay [1] was 3510 nM; in assay [2] it was 502 nM.

`COc1cccc(C(NC=O)c2ccc3[nH]c(=O)c(C)cc3c2)c1` (stereo not shown) [Compound 101]: the IC50 in assay [1] was 2840 nM; in assay [2] it was 773 nM.

Take `Cc1cc2cc(C(NC=O)c3ccc(F)cc3)ccc2[nH]c1=O` (stereo not shown) [Compound 102]: the IC50 was 1590 nM in assay [1] and 366 nM in assay [2].

As for `Cc1cc2cc(CCC(NC=O)c3ccccc3)ccc2[nH]c1=O` (stereo not shown) [Compound 103], the IC50 in assay [1] is 7730 nM; in assay [2] it was 902 nM.

For `Cc1cc2cc(C(NC=O)c3cccc(Cl)c3)ccc2[nH]c1=O` (stereo not shown) [Compound 104], the results for the IC50 in assay [1] and in assay [2] were 2380 nM and 501 nM, respectively.

For `Cc1cc2cc(C(NC=O)c3ccc(Cl)cc3)ccc2[nH]c1=O` (stereo not shown) [Compound 105], the figures for the IC50 in assay [1] and in assay [2] were 1470 nM and 618 nM, respectively.

With `Cc1cc2cc(C(NC=O)c3ccccc3)ccc2[nH]c1=O` (stereo not shown) [Compound 106], the IC50 was 1680 nM in assay [1] and 493 nM in assay [2].

Take `COc1cccc(C(O)c2ccc3[nH]c(=O)c(C)cc3c2)c1` (stereo not shown) [Compound 107]: the figures for the IC50 in assay [1] and in assay [2] were 10000 nM and 841 nM, respectively.

`CCOC(=O)c1ccc(C(O)c2ccc3[nH]c(=O)c(C)cc3c2)cc1` (stereo not shown) [Compound 109]: the IC50 is 2320 nM in assay [1] and 755 nM in assay [2].

Regarding `CCc1cc2cc(C(O)c3ccccc3)ccc2[nH]c1=O` (stereo not shown) [Compound 110], the figures for the IC50 in assay [1] and in assay [2] were 2580 nM and 277 nM, respectively.

As to `Cc1cc2cc(C(O)c3ccc4c(c3)OCO4)ccc2[nH]c1=O` (stereo not shown) [Compound 111], the IC50 in assay [1] is 4430 nM; in assay [2] it was 611 nM.

For `C#CC(O)(c1ccccc1)c1ccc2[nH]c(=O)c(C)cc2c1` (stereo not shown) [Compound 112], the IC50 in assay [1] was 2710 nM; in assay [2] it was 689 nM.

Turning to `CCc1nc2cc(CC(=O)c3ccc(Cl)cc3)ccc2[nH]c1=O` [Compound 113], the IC50 is 5930 nM in assay [1] and 556 nM in assay [2].

Turning to `CCc1nc2cc(CC(c3ccc(Cl)cc3)N3CCCCC3)ccc2[nH]c1=O` (stereo not shown) [Compound 114], the IC50 in assay [1] was 1580 nM; in assay [2], 552 nM.

`CCc1nc2cc(C(c3cccc(F)c3)n3ccnc3)ccc2[nH]c1=O` (stereo not shown) [Compound 115]: the values for the IC50 in assay [1] and in assay [2] were 3440 nM and 818 nM, respectively.

With `CCc1nc2cc(C(c3ccc(Cl)cc3)n3cnc(C)c3)ccc2[nH]c1=O` (stereo not shown) [Compound 122], the IC50 in assay [1] is 2700 nM; in assay [2], 877 nM.

Turning to `CCc1nc2cc(C(c3cccc(Cl)c3)n3ccnc3)ccc2[nH]c1=O` (stereo not shown) [Compound 123], the IC50 in assay [1] is 3300 nM; in assay [2], 612 nM.

Regarding `CCc1nc2cc(C(c3ccc(Cl)cc3)N3CCCCC3)ccc2[nH]c1=O` (stereo not shown) [Compound 124], the IC50 in assay [1] is 1380 nM; in assay [2] it was 1570 nM.

`CCc1nc2cc(C(c3ccc(F)cc3)n3ccnc3)ccc2[nH]c1=O` (stereo not shown) [Compound 125]: the IC50 is 5610 nM in assay [1] and 711 nM in assay [2].

With `CCc1nc2cc(C(c3ccc(Cl)cc3)n3ccnc3)ccc2[nH]c1=O` (stereo not shown) [Compound 126], the values for the IC50 in assay [1] and in assay [2] were 2250 nM and 573 nM, respectively.
